Experimental data taken from patent US20220160747A1, “PHARMACEUTICAL COMPOSITION COMPRISING NOVEL AZOLOPYRIMIDINE HETEROCYCLIC COMPOUND AS ACTIVE INGREDIENT” (KOREA RESEARCH INSTITUTE OF CHEMICAL TECHNOLOGY, priority 2019, published 2022).

Legend:
[1] = target: T1, human CD73 recombinant protein (Homo sapiens, UniProt P21589); experiment: Enzyme assay, CD73 (Malachite green kit); format: biochemical; conditions: AMP added, incubation 30 minutes
T1 construct: made in house
T1 sequence (P21589 27-549): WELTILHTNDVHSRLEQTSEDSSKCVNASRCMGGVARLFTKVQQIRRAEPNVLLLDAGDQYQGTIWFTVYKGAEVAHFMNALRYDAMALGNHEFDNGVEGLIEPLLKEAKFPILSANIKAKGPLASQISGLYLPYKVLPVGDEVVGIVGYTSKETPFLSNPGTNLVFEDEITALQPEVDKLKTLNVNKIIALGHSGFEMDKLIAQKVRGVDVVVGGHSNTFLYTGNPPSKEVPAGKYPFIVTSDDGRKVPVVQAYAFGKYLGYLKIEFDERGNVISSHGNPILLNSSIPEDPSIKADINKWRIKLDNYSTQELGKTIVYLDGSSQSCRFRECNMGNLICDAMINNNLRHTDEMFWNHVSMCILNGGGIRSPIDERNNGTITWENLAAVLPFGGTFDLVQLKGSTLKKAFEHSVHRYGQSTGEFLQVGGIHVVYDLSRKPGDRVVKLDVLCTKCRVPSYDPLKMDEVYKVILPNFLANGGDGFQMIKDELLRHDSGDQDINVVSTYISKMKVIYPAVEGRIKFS
Method: (§1) Referring to a method described in a reference document [Front Pharmacol. 2018 Mar. 1; 9:153], an enzyme assay was performed. Each of human CD73 and CD39 recombinant proteins was produced and then purified and isolated, and used in an enzyme assay. A buffer was basically 25 mM Tris, 5 mM MgCl2, pH 7.5 as an assay buffer, and for assay, human CD73 and CD39 recombinant protein were diluted at an appropriate concentration, respectively, in the assay buffer, adenosine monophosphate (AMP) (Sigma, Catalog #A1752) at an appropriate concentration was added, and then incubation was performed for 30 minutes. At the time, the azolopyrimidine heterocyclic compounds of the present invention were treated for each concentration and incubated together, thereby measuring a degree of inhibiting activity of CD73 or CD39.

[2] = target: T2, human CD39 recombinant protein (Homo sapiens, UniProt P49961); experiment: Enzyme assay, CD39 (Malachite green kit); format: biochemical; conditions: AMP added, incubation 30 minutes
T2 construct: made in house
T2 sequence (P49961 1-510): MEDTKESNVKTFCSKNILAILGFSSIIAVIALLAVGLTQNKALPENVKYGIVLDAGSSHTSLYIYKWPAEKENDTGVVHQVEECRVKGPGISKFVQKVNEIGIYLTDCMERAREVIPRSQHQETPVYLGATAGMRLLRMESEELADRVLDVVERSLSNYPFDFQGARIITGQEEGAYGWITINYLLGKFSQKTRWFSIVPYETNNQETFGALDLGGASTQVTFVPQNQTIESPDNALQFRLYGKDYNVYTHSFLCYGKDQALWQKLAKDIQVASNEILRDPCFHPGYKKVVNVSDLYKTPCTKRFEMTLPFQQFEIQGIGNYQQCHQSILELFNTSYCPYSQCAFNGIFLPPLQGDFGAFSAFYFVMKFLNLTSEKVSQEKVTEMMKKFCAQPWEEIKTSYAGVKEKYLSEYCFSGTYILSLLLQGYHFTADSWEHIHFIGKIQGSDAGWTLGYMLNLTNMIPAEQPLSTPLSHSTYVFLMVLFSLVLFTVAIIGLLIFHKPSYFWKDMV
Method: as §1

Row | IC50 [1] [µM] | IC50 [2] [µM] | Compound
1 | 15.1 to 30 |  | CN(Cc1cccc(F)c1)c1ncnc2c1ncn2[C@@H]1O[C@H](COC(=S)Nc2ccccc2)[C@H]2OC(C)(C)O[C@H]21 [Compound 4, O-(((3aR,4R,6R,6aR)-6-(6-((3-fluorobenzyl)(methyl)amino)-9H-purin-9-yl)-2,2-dimethyltetrahydrofuro[3,4-d][1,3]dioxol-4-yl)methyl) phenylcarbamothioate]
2 | < 1 | 1.1 to 5 | CN(Cc1cccc(F)c1)c1ncnc2c1ncn2[C@@H]1O[C@H](CO[Si](c2ccccc2)(c2ccccc2)C(C)(C)C)[C@@H](O)[C@H]1O [Compound 8, (2R,3S,4R,5R)-2-(((tert-butyldiphenylsilyl)oxy)methyl)-5-(6-((3-fluorobenzyl)(methyl)amino)-9H-purin-9-yl)tetrahydrofuran-3,4-diol]
3 | < 1 | 1.1 to 5 | CN(Cc1cccc(F)c1)c1ncnc2c1ncn2[C@@H]1O[C@H](COC(c2ccccc2)(c2ccccc2)c2ccccc2)[C@@H](O)[C@H]1O [Compound 24, (2R,3R,4S,5R)-2-(6-((3-fluorobenzyl)(methyl)amino)-9H-purin-9-yl)-5-((trityloxy)methyl)tetrahydrofuran-3,4-diol]
4 | < 1 | 1.1 to 5 | CN(Cc1cccc(F)c1)c1ncnc2c1ncn2[C@@H]1O[C@H](CO[Si](c2ccccc2)(c2ccccc2)c2ccccc2)[C@@H](O)[C@H]1O [Compound 21, (2R,3R,4S,5R)-2-(6-((3-fluorobenzyl)(methyl)amino)-9H-purin-9-yl)-5-(((triphenylsilyl)oxy)methyl)tetrahydrofuran-3,4-diol]
5 | 1.1 to 5 | 1.1 to 5 | CN(Cc1cccc(F)c1)c1ncnc2c1ncn2[C@@H]1O[C@H](COCc2ccc(S(F)(F)(F)(F)F)cc2)[C@@H](O)[C@H]1O [Compound 15, (2R,3R,4S,5R)-2-(6-((3-fluorobenzyl)(methyl)amino)-9H-purin-9-yl)-5-(((4-(pentafluorothio)benzyl)oxy)methyl)tetrahydrofuran-3,4-diol]
6 | 1.1 to 5 | ≥ 30 | COc1ccc(C(OC[C@H]2O[C@@H](n3cnc4c(Cl)ncnc43)[C@H](O)[C@@H]2O)(c2ccccc2)c2ccc(OC)cc2)cc1 [Compound 23, (2R,3S,4R,5R)-2-((bis(4-methoxyphenyl) (phenyl)methoxy)methyl)-5-(6-chloro-9H-purin-9-yl)tetrahydrofuran-3,4-diol]
7 | < 1 | 1.1 to 5 | CN(Cc1cccc(F)c1)c1ncnc2c1ncn2[C@@H]1O[C@H](COCc2ccc(-c3ccccc3)cc2)[C@@H](O)[C@H]1O [Compound 13, (2R,3S,4R,5R)-2-(([1,1′-biphenyl]-4-ylmethoxy)methyl)-5-(6-((3-fluorobenzyl)(methyl)amino)-9H-purin-9-yl)tetrahydrofuran-3,4-diol]
8 | < 1 | < 1 | COc1ccc(C(OC[C@H]2O[C@@H](n3cnc4c(N(C)Cc5cccc(F)c5)ncnc43)[C@H](O)[C@@H]2O)(c2ccccc2)c2ccc(OC)cc2)cc1 [Compound 25, (2R,3S,4R,5R)-2-((bis(4-methoxyphenyl) (phenyl)methoxy)methyl)-5-(6-((3-fluorobenzyl)(methyl)amino)-9H-purin-9-yl)tetrahydrofuran-3,4-diol]
9 | 1.1 to 5 | 1.1 to 5 | CN(Cc1cccc(F)c1)c1ncnc2c1ncn2[C@@H]1O[C@H](COCc2ccc3ccccc3c2Br)[C@H]2OC(C)(C)O[C@H]21 [Compound 17, 9-((3aR,4R,6R,6aR)-6-(((1-bromonaphthalen-2-yl)methoxy)methyl)-2,2-dimethyltetrahydrofuro[3,4-d][1,3]dioxol-4-yl)-N-(3-fluorobenzyl)-N-methyl-9H-purin-6-amine]
10 | 1.1 to 5 | ≥ 30 | CN(Cc1cccc(F)c1)c1ncnc2c1ncn2[C@@H]1O[C@H](COC(=S)Nc2ccccc2)[C@@H](O)[C@H]1O [Compound 7, O-(((2R,3S,4R,5R)-5-(6-((3-fluorobenzyl)(methyl)amino)-9H-purin-9-yl)-3,4-dihydroxytetrahydrofuran-2-yl)methyl) phenylcarbamothioate]
11 | 1.1 to 5 | 1.1 to 5 | CN(Cc1cccc(F)c1)c1ncnc2c1ncn2[C@@H]1O[C@H](CO[Si](C)(C)C(C)(C)C)[C@@H](O)[C@H]1O [Compound 20, (2R,3S,4R,5R)-2-(((tert-butyldimethylsilyl)oxy)methyl)-5-(6-((3-fluorobenzyl)(methyl)amino)-9H-purin-9-yl)tetrahydrofuran-3,4-diol]
12 | < 1 | 5.1 to 15 | O[C@@H]1[C@H](O)[C@@H](COC(c2ccccc2)(c2ccccc2)c2ccccc2)O[C@H]1n1cnc2c(Cl)ncnc21 [Compound 22, (2R,3R,4S,5R)-2-(6-chloro-9H-purin-9-yl)-5-((trityloxy)methyl)tetrahydrofuran-3,4-diol]
13 | 1.1 to 5 | 5.1 to 15 | CN(Cc1cccc(F)c1)c1ncnc2c1ncn2[C@@H]1O[C@H](COCc2ccc3ccccc3c2)[C@H]2OC(C)(C)O[C@H]21 [Compound 16, 9-((3aR,4R,6R,6aR)-2,2-dimethyl-6-((naphthalen-2-ylmethoxy)methyl)tetrahydrofuro[3,4-d][1,3]dioxol-4-yl)-N-(3-fluorobenzyl)-N-methyl-9H-purin-6-amine]
14 | 1.1 to 5 | 1.1 to 5 | CN(Cc1cccc(F)c1)c1ncnc2c1ncn2[C@@H]1O[C@H](COCc2ccc3ccccc3c2Br)[C@@H](O)[C@H]1O [Compound 19, (2R,3S,4R,5R)-2-(((1-bromonaphthalen-2-yl)methoxy)methyl)-5-(6-((3-fluorobenzyl)(methyl)amino)-9H-purin-9-yl)tetrahydrofuran-3,4-diol]
15 | ≥ 30 |  | CN(Cc1cccc(F)c1)c1ncnc2c1ncn2[C@@H]1O[C@H](CO[Si](c2ccccc2)(c2ccccc2)C(C)(C)C)[C@H]2OC(C)(C)O[C@H]21 [Compound 1, 9-((3aR,4R,6R,6aR)-6-(((tert-butyldiphenylsilyl)oxy)methyl)-2,2-dimethyltetrahydrofuro[3,4-d][1,3]dioxol-4-yl)-N-(3-fluorobenzyl)-N-methyl-9H-purin-6-amine]
16 | 1.1 to 5 | 15.1 to 30 | CN(Cc1cccc(F)c1)c1ncnc2c1ncn2[C@@H]1O[C@H](COCc2ccc3ccccc3c2)[C@@H](O)[C@H]1O [Compound 18, (2R,3R,4S,5R)-2-(6-((3-fluorobenzyl)(methyl)amino)-9H-purin-9-yl)-5-((naphthalen-2-ylmethoxy)methyl)tetrahydrofuran-3,4-diol]
17 | 15.1 to 30 |  | CN(Cc1cccc(F)c1)c1ncnc2c1ncn2[C@@H]1O[C@H](COC(=O)Nc2ccccc2)[C@H]2OC(C)(C)O[C@H]21 [Compound 3, ((3aR,4R,6R,6aR)-6-(6-((3-fluorobenzyl)(methyl)amino)-9H-purin-9-yl)-2,2-dimethyltetrahydrofuro[3,4-d][1,3]dioxol-4-yl)methyl phenylcarbamate]
18 | < 1 | 5.1 to 15 | CN(Cc1cccc(F)c1)c1ncnc2c1ncn2[C@@H]1O[C@H](COCc2cc(C(F)(F)F)cc(C(F)(F)F)c2)[C@@H](O)[C@H]1O [Compound 14, (2R,3S,4R,5R)-2-(((3,5-bis(trifluoromethyl)benzyl)oxy)methyl)-5-(6-((3-fluorobenzyl)(methyl)amino)-9H-purin-9-yl)tetrahydrofuran-3,4-diol]
19 | 5.1 to 15 |  | CN(Cc1cccc(F)c1)c1ncnc2c1ncn2[C@@H]1O[C@H](COC(=O)c2ccccc2)[C@@H](O)[C@H]1O [Compound 9, ((2R,3S,4R,5R)-5-(6-((3-fluorobenzyl)(methyl)amino)-9H-purin-9-yl)-3,4-dihydroxytetrahydrofuran-2-yl)methyl benzoate]
20 | 5.1 to 15 |  | CN(Cc1cccc(F)c1)c1ncnc2c1ncn2[C@@H]1O[C@H](COC(=O)Nc2ccccc2)[C@@H](O)[C@H]1O [Compound 6, ((2R,3S,4R,5R)-5-(6-((3-fluorobenzyl)(methyl)amino)-9H-purin-9-yl)-3,4-dihydroxytetrahydrofuran-2-yl)methyl phenylcarbamate]
